Test results reported in paper PMC6017844, “4-Thiazolidinone Derivatives as MMP Inhibitors in Tissue Damage: Synthesis, Biological Evaluation and Docking Studies” (Molecules : A Journal of Synthetic Chemistry and Natural …, 2018).

Experiments:
[1] = Oxygen Radical Absorbance Capacity (ORAC) assay; conditions: fluorescein 10 nM, AAPH 100 mM, 37 °C, pH 7.0; mean ± SD (n = 3); Trolox = 1 ORAC Units
Source text: Free radicals and ROS are highly reactive molecules that are generated by normal cellular processes. They react with cellular components, damaging DNA, carbohydrates, proteins, and lipids causing cellular and tissue injury. Although organisms have developed complex antioxidant systems to protect themselves from oxidative substances, an excess of ROS production can lead to inflammation and several disease state. ORAC test measures both lipophilic and hydrophilic antioxidant capacity and determines the ability of antioxidants to protect proteins from damage caused by free radicals. ORAC assay has been widely accepted as a standard in vitro to measure the antioxidant activity of synthetic compounds, measuring their capacity to transfer hydrogen atom. The assay measures the loss of fluorescence over time due to peroxyl-radical formation by the breakdown of 2,2′-azobis-2-methyl-propanimidamide dihydrochloride (AAPH). 6-Hydroxy-2,5,7,8-tetramethylchroman-2-carboxylic acid (Trolox), a water soluble vitamin E analog, is a positive control that inhibits the fluorescein decay in a dose dependent manner. The ORAC assay is a kinetic assay measuring fluorescein decay and antioxidant protection over time.
The ORAC assay was performed as previously reported by Cao et al.. The measurements were carried out on a Wallac 1420 Victor^3 96-well plate reader (EG & Wallac, Turku, Finland) with fluorescence filter ([…]). Fluorescein (10 nM) was the fluorescence probe and target molecule for free radical attack from AAPH (100 mM) as peroxyl radical generator. The reaction was conducted at 37 °C at pH 7.0 with Trolox (12.5 μM) as control standard and phosphate buffer as blank. Compounds 13–19 and 22–23 were appropriately diluted with DMSO/buffer (1:10) prior to analysis. The fluorescein fluorescence was recorded every 2 min after addition of AAPH. All measurements were expressed relative to the initial reading. One blank, one standard, and a maximum of 10 samples were analyzed at the same time. Each measure was repeated at least three times. The ORAC value refers to the net protection area under the quenching curve of fluorescein in the presence of an antioxidant. The final results (ORAC value) were calculated and expressed using Trolox equivalents (TE) per gram of extract (TE/g):ORAC value (μM) = K(S sample − S blank)/(S Trolox − S blank)(1) where K is a sample dilution factor, S is the area under the fluorescence decay curve of the sample, Trolox or blank. This area was calculated with Origin®7 (OriginLab Corporation, Northampton, MA, USA).

[2] = molecular target: T1, human recombinant MMP-9 (Homo sapiens, UniProt P14780); test: MMP-9 fluorimetric assay; type: biochemical; conditions: catalytic domain of MMP-9 10 nM, substrate 350 nM, 25 °C, pH 7; mean ± SD (n = 3); n.a. = not active; read-out: IC50 Value
T1 construct: using 10 nM of proteolytic enzyme (catalytic domains of MMP-9 (Biomol, Inc.)); purchased Biomol, Inc
Method: The synthesized compounds 13–19, 22 and 23 were tested for their in vitro ability to inhibit human recombinant MMP-9. Table 2 reports the results of this inhibition assay, expressed as IC50 (µM). […] We used as positive control a potent MMPs inhibitor, NNGH (N-isobutyl-N-(4-methoxy-phenylsulfonyl)glycylhydroxamic acid).
The compounds were evaluated for their ability to inhibit the hydrolysis of fluorescence-quenched peptide substrate Mca-Pro-Leu-Gly-Leu-Dpa-Ala-Arg-NH2 (Biomol, Inc., Enzo Life Sciences, Inc., Farmingdale, NY, USA). The MMP-9 assays were performed in 50 mM HEPES buffer containing 5 mM CaCl2, 0.1 mM ZnCl2, 0.05% Brij-35, at pH 7, using 10 nM of proteolytic enzyme (catalytic domains of MMP-9 (Biomol, Inc.) and 350 nM of peptide substrate. The enzyme was incubated at 25 °C with increasing concentration (0.0004, 0.004, 0.04, 0.4, 4, 40, 400 µM) of compounds, and the fluorescence (excitation max 328 nm; emission max 393 nm) was measured for 3 min after the addition of the substrate using a Victor Wallac 1420 Multilabel Counters fluorimeter (Perkin Elmer, Waltham, MA, USA). The fluorescence values of the samples were plotted against the time with a linear regression fit, using the Origin software, version 7 (Origin Lab Corporation, Northampton, MA, USA). The slope of the line value for each inhibitor concentrations was obtained where an increase of the slope corresponds to a decrease of inhibitory activity. Subsequently, the IC50 values were obtained from a non-linear regression procedure (log inhibitor vs. response) with a variables slope of the regression line (Y) and the molar inhibitor concentration (X), using the software Origin®7 (Origin Lab Corporation). The IC50 value was obtained from the equation Y = P1/(1 + X/P2). NNGH (N-Isobutyl-N-(4-methoxyphenylsulfonyl)glycylhydroxamic acid) a potent MMPs inhibitor was used as a positive control.

T1 sequence (P14780 107-444 limits assumed): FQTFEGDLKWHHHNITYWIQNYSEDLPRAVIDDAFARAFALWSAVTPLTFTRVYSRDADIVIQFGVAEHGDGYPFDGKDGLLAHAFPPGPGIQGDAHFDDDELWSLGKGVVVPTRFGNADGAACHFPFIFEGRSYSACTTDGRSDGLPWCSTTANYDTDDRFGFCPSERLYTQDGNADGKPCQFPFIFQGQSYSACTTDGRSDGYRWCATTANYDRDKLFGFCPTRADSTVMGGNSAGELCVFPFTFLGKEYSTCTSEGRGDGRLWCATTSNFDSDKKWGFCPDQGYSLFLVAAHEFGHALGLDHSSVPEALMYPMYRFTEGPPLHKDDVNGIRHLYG

| melting point | IC50 [2] | Compound | ORAC UNITs [1] |
| --- | --- | --- | --- |
| 185 to 186 °C |  | CC(C(=O)NN1C(=O)CSC1c1ccc(F)cc1)c1nsc2ccccc12 (centres unmarked) (hydrate or solvate) [Compound 16, 2-(1,2-Benzothiazol-3-yl)-N-[2-(4-fluorophenyl)-4-oxo-1,3-thiazolidin-3-yl]propanamide] |  |
|  | 17.2 ± 1.92 µM | CC(C(=O)NN1C(=O)CSC1c1ccc(F)cc1)c1nsc2ccccc12 (centres unmarked) [Compound 16, 2-(1,2-Benzothiazol-3-yl)-N-[2-(4-fluorophenyl)-4-oxo-1,3-thiazolidin-3-yl]propanamide] | 0.46 ± 0.20 ORAC unit (μmol of Trolox equi |
| 239 to 240 °C |  | CC(C(=O)NN1C(=O)CSC1c1ccccc1)c1nsc2ccccc12 (centres unmarked) (hydrate or solvate) [Compound 13, 2-(1,2-Benzothiazol-3-yl)-N-(4-oxo-2-phenyl-1,3-thiazolidin-3-yl)propanamide] |  |
| 145 to 147 °C |  | CC(C(=O)NN1C(=O)CSC1c1ccc(C(F)(F)F)cc1)c1nsc2ccccc12 (centres unmarked) (hydrate or solvate) [Compound 17, 2-(1,2-Benzothiazol-3-yl)-N-{4-oxo-2-[4-(trifluoromethyl)phenyl]-1,3-thiazolidin-3-yl}propanamide] |  |
| 170 °C |  | COc1ccc(C2SCC(=O)N2NC(=O)C(C)c2nsc3ccccc23)cc1 (centres unmarked) (hydrate or solvate) [Compound 15, 2-(1,2-Benzothiazol-3-yl)-N-[2-(4-methoxyphenyl)-4-oxo-1,3-thiazolidin-3-yl]propanamide] |  |
| 208 to 209 °C |  | CC(C(=O)NN1C(=O)CSC1c1ccc([N+](=O)[O-])cc1)c1nsc2ccccc12 (centres unmarked) (hydrate or solvate) [Compound 19, 2-(1,2-Benzothiazol-3-yl)-N-[2-(4-nitrophenyl)-4-oxo-1,3-thiazolidin-3-yl]propanamide] |  |
|  |  | CC(C(=O)NN1C(=O)CSC1c1ccc(C(F)(F)F)cc1)c1nsc2ccccc12 (centres unmarked) [Compound 17, 2-(1,2-Benzothiazol-3-yl)-N-{4-oxo-2-[4-(trifluoromethyl)phenyl]-1,3-thiazolidin-3-yl}propanamide] | 0.27 ± 0.06 ORAC unit (μmol of Trolox equi |
|  | 22.1 ± 1.42 µM | CC(C(=O)NN1C(=O)CSC1c1ccc([N+](=O)[O-])cc1)c1nsc2ccccc12 (centres unmarked) [Compound 19, 2-(1,2-Benzothiazol-3-yl)-N-[2-(4-nitrophenyl)-4-oxo-1,3-thiazolidin-3-yl]propanamide] | 0.40 ± 0.17 ORAC unit (μmol of Trolox equi |
|  | 7.99 ± 0.65 µM | CC(C(=O)NN1C(=O)CSC1c1ccccc1)c1nsc2ccccc12 (centres unmarked) [Compound 13, 2-(1,2-Benzothiazol-3-yl)-N-(4-oxo-2-phenyl-1,3-thiazolidin-3-yl)propanamide] | 0.61 ± 0.14 ORAC unit (μmol of Trolox equi |
| 187 to 188 °C |  | CC(C(=O)NN1C(=O)CSC1c1ccc(Cl)cc1)c1nsc2ccccc12 (centres unmarked) (hydrate or solvate) [Compound 18, 2-(1,2-Benzothiazol-3-yl)-N-[2-(4-chlorophenyl)-4-oxo-1,3-thiazolidin-3-yl]propanamide] |  |
|  | 6.82 ± 0.95 µM | COc1ccc(C2SCC(=O)N2NC(=O)C(C)c2nsc3ccccc23)cc1 (centres unmarked) [Compound 15, 2-(1,2-Benzothiazol-3-yl)-N-[2-(4-methoxyphenyl)-4-oxo-1,3-thiazolidin-3-yl]propanamide] | 0.66 ± 0.12 ORAC unit (μmol of Trolox equi |
|  | 9.01 ± 0.45 µM | Cc1ccc(C2SCC(=O)N2NC(=O)C(C)c2nsc3ccccc23)cc1 (centres unmarked) [Compound 14, 2-(1,2-Benzothiazol-3-yl)-N-[2-(4-methylphenyl)-4-oxo-1,3-thiazolidin-3-yl]propanamide] | 0.40 ± 0.06 ORAC unit (μmol of Trolox equi |
|  | 16.1 ± 1.23 µM | CC(C(=O)NN1C(=O)CSC1c1ccc(Cl)cc1)c1nsc2ccccc12 (centres unmarked) [Compound 18, 2-(1,2-Benzothiazol-3-yl)-N-[2-(4-chlorophenyl)-4-oxo-1,3-thiazolidin-3-yl]propanamide] | 0.47 ± 0.23 ORAC unit (μmol of Trolox equi |

| Compound | melting point | IC50 [2] | ORAC UNITs [1] |
| --- | --- | --- | --- |
| COc1ccc(S(=O)(=O)N(CC(=O)NO)CC(C)C)cc1 [NNGH, N-isobutyl-N-(4-methoxy-phenylsulfonyl)glycylhydroxamic acid, reference compound] |  | 0.0065 ± 0.00025 µM |  |
